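96-well plates; 48 h exposure; 5 concentrations. Endpoints by linear interpolation between flanking doses. Not reached: highest tested concentration assigned. TGI: concentration producing complete growth inhibition.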
How the values were obtained:
Test in all cases: inhibition of tumour cell growth, NCI panel, 48 h
ACHN renal = tested on: ACHN renal
BT-549 breast = tested on: BT-549 breast
COLO 205 colon = tested on: COLO 205 colon
HCT-116 colon = tested on: HCT-116 colon
HOP-62 NSCLC = tested on: HOP-62 NSCLC
HT29 colon = tested on: HT29 colon
IGROV1 ovarian = tested on: IGROV1 ovarian
M14 melanoma = tested on: M14 melanoma
MDA-MB-435 = tested on: MDA-MB-435
MDA-N = tested on: MDA-N
MOLT-4 leukemia = tested on: MOLT-4 leukemia
OVCAR-4 ovarian = tested on: OVCAR-4 ovarian
RXF 393 renal = tested on: RXF 393 renal
SF-295 CNS = tested on: SF-295 CNS
SNB-75 CNS = tested on: SNB-75 CNS
T-47D breast = tested on: T-47D breast
UO-31 renal = tested on: UO-31 renal
CCRF-CEM leukemia = tested on: CCRF-CEM leukemia
HCT-15 colon = tested on: HCT-15 colon
SW-620 colon = tested on: SW-620 colon

SMILES | TGI (ACHN renal) | TGI (BT-549 breast) | TGI (COLO 205 colon) | TGI (HCT-116 colon) | TGI (HOP-62 NSCLC) | TGI (HT29 colon) | TGI (IGROV1 ovarian) | TGI (M14 melanoma) | TGI (MDA-MB-435) | TGI (MDA-N) | TGI (MOLT-4 leukemia) | TGI (OVCAR-4 ovarian) | TGI (RXF 393 renal) | TGI (SF-295 CNS) | TGI (SNB-75 CNS) | TGI (T-47D breast) | TGI (UO-31 renal) | TGI (CCRF-CEM leukemia) | TGI (HCT-15 colon) | TGI (SW-620 colon)
COC(=O)C1=C(C(=O)OC)SC2(S1)C(C(=O)OC)=C(C(=O)OC)Sc1c2ssc1=Nc1ccc(Cl)cc1 | 2.7 µM | 5.11 µM | 2.04 µM | 1.15 µM | 3.36 µM | 1.78 µM | 2.48 µM | 2.79 µM | 2.14 µM | 1.69 µM | 5.04 µM | 2.43 µM | 0.894 µM | 5.34 µM | 2.3 µM | 3.45 µM | 2.01 µM | – | – | –
OCCOc1ccccc2cccc1-2 | > 100 µM | > 100 µM | > 100 µM | > 100 µM | > 100 µM | > 100 µM | > 100 µM | > 100 µM | > 100 µM | > 100 µM | – | > 100 µM | – | > 100 µM | > 100 µM | > 100 µM | > 100 µM | > 100 µM | > 100 µM | > 100 µM
CCOC(=O)C(NC(=O)c1ccccc1)(Nc1ccc(Cl)cc1C(F)(F)F)C(F)(F)F (centres undefined) | 27.4 µM | 32.4 µM | 19.2 µM | > 84.5 µM | 31.8 µM | 6.53 µM | > 64.7 µM | 28 µM | 3.24 µM | 3.69 µM | > 22.2 µM | > 100 µM | 24.7 µM | > 69.8 µM | 15.1 µM | > 45.6 µM | > 100 µM | – | > 50.9 µM | 17.2 µM
O=C(CNC(c1ccccc1)(c1ccccc1)c1ccccc1)NC1CCCCC1NC(=O)CNC(c1ccccc1)(c1ccccc1)c1ccccc1 (centres undefined) | > 100 µM | > 100 µM | > 100 µM | > 100 µM | 91.6 µM | > 100 µM | > 100 µM | – | > 100 µM | > 100 µM | > 100 µM | > 100 µM | – | > 100 µM | – | > 100 µM | > 100 µM | > 100 µM | > 100 µM | > 100 µM
O=C(O)c1ccc(C2SCc3nc4ccccc4n32)cc1 (centres undefined) | > 100 µM | > 100 µM | – | > 100 µM | > 100 µM | > 100 µM | > 100 µM | > 100 µM | – | > 100 µM | > 100 µM | > 100 µM | > 100 µM | > 100 µM | > 100 µM | – | > 100 µM | > 100 µM | > 100 µM | > 100 µM
CCOC1Oc2ccccc2-c2nc(SC)ncc21 (centres undefined) | > 100 µM | > 100 µM | > 100 µM | > 100 µM | – | > 100 µM | > 100 µM | > 100 µM | > 100 µM | > 100 µM | > 100 µM | > 100 µM | > 100 µM | > 100 µM | > 100 µM | > 100 µM | > 100 µM | > 100 µM | > 100 µM | > 100 µM
Brc1ccc2c(c1)-c1nc3nc4c(cc3cc1CC2)CCc1ccc(Br)cc1-4 | > 100 µM | > 100 µM | > 100 µM | > 100 µM | > 100 µM | – | > 100 µM | > 100 µM | > 100 µM | > 100 µM | > 100 µM | > 100 µM | > 100 µM | > 100 µM | > 100 µM | > 100 µM | > 100 µM | – | > 100 µM | > 100 µM
Cn1c(=O)sc2cc(C(=S)N3CCC(Cc4ccccc4)CC3)ccc21 | > 100 µM | > 100 µM | > 100 µM | > 100 µM | > 100 µM | > 100 µM | > 100 µM | > 100 µM | > 100 µM | > 100 µM | > 100 µM | – | > 100 µM | > 100 µM | – | – | – | > 100 µM | > 100 µM | > 100 µM
CC(=O)Nc1nnc(S(C)(=O)=O)s1 | > 100 µM | > 100 µM | > 100 µM | > 100 µM | > 100 µM | > 100 µM | – | > 100 µM | > 100 µM | > 100 µM | > 100 µM | – | > 100 µM | > 100 µM | – | – | > 100 µM | > 100 µM | > 100 µM | > 100 µM
COC(=O)/C=C/C1(O)C=CC(=O)C=C1 | 5.25 µM | 22.9 µM | 23.4 µM | 3.73 µM | 14.4 µM | – | 7.74 µM | 3.78 µM | > 39.2 µM | 4.5 µM | > 24.6 µM | 15.6 µM | > 25.1 µM | 38.3 µM | 24 µM | > 20.8 µM | 3.51 µM | 10.7 µM | > 31.9 µM | –
O=C(O)CCCc1ccc2ccccc2c1 | > 100 µM | > 100 µM | > 100 µM | > 100 µM | > 100 µM | > 100 µM | > 100 µM | > 100 µM | > 100 µM | > 100 µM | > 100 µM | > 100 µM | > 100 µM | > 100 µM | – | > 100 µM | > 100 µM | > 100 µM | > 100 µM | > 100 µM
O=C1CSC(c2c[nH]c3ccccc23)N1c1ccccc1[N+](=O)[O-] (centres undefined) | – | > 100 µM | > 100 µM | > 100 µM | > 100 µM | > 100 µM | > 100 µM | > 100 µM | > 100 µM | > 100 µM | > 100 µM | > 100 µM | – | > 100 µM | – | > 100 µM | > 100 µM | > 100 µM | > 100 µM | > 100 µM
O=C(C/C(=N/O)c1cc(-c2ccccc2)no1)c1ccccc1 | > 100 µM | 75.1 µM | > 100 µM | 60 µM | 40.2 µM | > 100 µM | 86 µM | > 100 µM | > 100 µM | > 100 µM | > 100 µM | 65.8 µM | 41.2 µM | > 100 µM | – | > 100 µM | > 100 µM | > 100 µM | > 100 µM | –
